Experimental data taken from article PMC5404848 (Cell Chemical Biology, 2017).

Tests used:
[1] = tested on: CCND1 mRNA in HCT116, MCF-7, and U-2 OS; assay: RT-PCR of CCND1 mRNA; type: cell-based, Human; conditions: 10 μM, 48 hr
Procedure: To characterize the mechanism of cyclin D1 downregulation by LCAHA, we first examined the level of CCND1 mRNA. […] In SAOS-2 cells CCND1 mRNA was not detected.
Total RNA was isolated with Renozol (GenoPlast Biochemicals) according to the manufacturer’s instructions. Five hundred ng of RNA was reverse-transcribed using M-MLV RT (Promega) and oligo-dT primer. RT PCR was performed with the use of GoTaq qPCR Master Mix (Promega) and the following primers: for CCND1 mRNA: […] and […], for GAPDH mRNA: […] and […] ([Yin et al., 2001]). The hybridization step was carried out at 60°C and the program involved 30 amplification cycles. The products were separated on 1% agarose gel and visualized with ChemiDoc MP system.

HCT116 p53^−/− cells [2] = assay: Cell cycle analysis (PI / BrdU, flow cytometry); type: cell-based, Human; conditions: 5 or 10 μM, 48 hr
Procedure: Low concentrations of LCAHA inhibit the growth of HCT116 cells without affecting their survival. To investigate this effect, we analyzed the cell-cycle distribution. Cells treated for 48 hr with LCAHA or DMSO were pulse-labeled with BrdU for 1 hr and stained with fluorescein isothiocyanate (FITC)-anti-bromodeoxyuridine (BrdU) antibody and propidium iodide (PI).
The cells were treated with DMSO or LCAHA for 48 hours and pulse-labelled with 10 μM bromodeoxyuridine (BrdU, Sigma Aldrich) for the last hour of the treatment. After that, the cells were either harvested by trypsinization and fixed with 96% ethanol, or cultured for additional 3-9 hours in the absence of BrdU before harvesting and fixation. The cells were stained with PI and FITC-conjugated anti-BrdU antibody (BioLegend, cat. 364104) and analysed with Fortessa flow cytometer (Becton Dickinson). Cell cycle distribution was analysed using ModFit LT Software (Verity Software House).

HCT116 p53^wt cells [3] = assay: Caspase 3/7 activity (Caspase-Glo 3/7); type: cell-based, Human
Procedure: To evaluate whether the observed effects are accompanied by the induction of apoptosis, we examined the activation of caspases 3 and 7 in HCT116 p53^wt cells.
The cells were plated on the 96-well white, flat bottom plates (Falcon) and treated with DMSO, LCAHA or Staurosporine. For the detection of caspase activity Caspase-Glo 3/7 Assay System was used (Promega) according to the manufacturer’s instructions.

HCT116 p53^wt cells [4] = assay: Western blot analysis of protein expression; type: cell-based, Human
HCT116 cells = assay: Western blot analysis of USP2a targets Aurora A and cyclin A1; conditions: 5 μM and 20 μM, 48 hr
Procedure: Total cell lysates were prepared with RIPA buffer (Sigma Aldrich) containing protease inhibitor cocktail (Sigma Aldrich) alone or with phosphatase inhibitor cocktail (Roche). Following the electrophoresis and transfer, PVDF membranes were blocked with 4% BSA (BioShop) in TBS-N buffer and incubated with primary antibody at 4°C overnight. After four washes, the addition of secondary antibodies and additional four washes, the detection was performed using Clarity Western ECL Substrate (BioRad) and ChemiDoc MP system (BioRad). The densitometry analysis was performed with Image Lab software (BioRad). All measured values, besides cyclin D1 stability experiment, were normalized to GAPDH or α-tubulin expression level.

HCT116 p53^−/− cells [5] = assay: MTT assay (cell viability), 6 days treatment; type: cell-based, Human; conditions: for GI50: HCT116 p53^−/−, MTT assay
Procedure: (§1) To test the biological activity of the compounds, we performed MTT (3-(4,5-dimethylthiazol-2-yl)-2,5-diphenyltetrazolium bromide) and lactate dehydrogenase (LDH) release assays. […] To track not only the toxic (lethal) but also growth-inhibitory (GI) effect in the MTT assay, we treated the cells for 6 days.
(§2) For MTT assay, the cells were seeded on 96-well transparent plates and treated the next day with the compounds or DMSO for 6 days. Thiazolyl Blue Tetrazolium Bromide (MTT, Sigma Aldrich) was added for 60 minutes to a final concentration of […]. The medium was removed and MTT crystals were dissolved in isopropanol supplemented with 40 mM HCl. The absorbance was measured with Infinite 200 microplate reader (Tecan Group Ltd.) at 570 nm with the reference wavelength 650 nm for background subtraction.

HCT116 p53^wt cells [6] = assay: MTT assay (cell viability), 6 days treatment; type: cell-based, Human; conditions: for GI50: HCT116^wt, MTT assay
Procedure: as §1, §2

HCT116 p53^wt cells [7] = assay: Cell numbers from pictures of Hoechst-stained cells; type: cell-based, Human; conditions: 3 days, DMSO 6452
Procedure: The cells were plated on the 96-well white, flat bottom plates (Falcon) and treated with DMSO, LCAHA or Staurosporine. For the detection of caspase activity Caspase-Glo 3/7 Assay System was used (Promega) according to the manufacturer’s instructions. Due to the observed growth-inhibitory properties of LCAHA the results were normalized to cell numbers, calculated from the pictures of Hoechst-stained cells seeded on transparent culture plates and treated identically as the cells seeded for caspase activity assay (mean nuclei number per picture was 6452 for 3 days treatment with DMSO, and 3957, 4229 and 2783 for the cells treated with increasing concentrations of LCAHA).

SAOS-2 cells [8] = assay: Colony formation assay; type: cell-based, Human; conditions: 5 μM for 5 days
Procedure: (§3) […]. […] […]. In addition a colony-forming assay was performed on cyclin D1-addicted MCF-7 cells and cyclin D1-negative SAOS-2 cells. […].
(§4) One thousand of the cells was then seeded on 6-well plates and cultured for 2-4 weeks until the generation of well-visible clones. The plates were stained with crystal violet, imaged with the ChemiDoc MP system and analyzed using the ImageJ software ([Schneider et al., 2012]) and ‘Analyze particles’ tool. The surviving fraction (SF) was calculated using the equation: SF = (PE of treated sample / PE of control) * 100%, where PE (plating efficiency) = Ncolonies / Ncells plated.

MCF-7 cells [9] = assay: Colony formation assay; type: cell-based, Human; conditions: 5 μM for 5 days
Procedure: as §3, §4

U-2 OS cells [10] = assay: Western blot analysis of cyclin D1 expression; type: cell-based, Human; conditions: 10 μM, 48 hr
U-2 OS cells [11] = assay: MTT assay, 6 days; type: cell-based, Human
Procedure: (§5) In addition a colony-forming assay was performed on cyclin D1-addicted MCF-7 cells and cyclin D1-negative SAOS-2 cells.
as §2

SAOS-2 cells [12] = assay: MTT assay, 6 days; type: cell-based, Human
Procedure: as §5, §2

MCF-7 cells [13] = assay: MTT assay, 6 days; type: cell-based, Human
Procedure: as §5, §2

MCF-7 cells [14] = assay: Western blot analysis of cyclin D1 expression; type: cell-based, Human; conditions: 10 μM, 48 hr
[15] = Homo sapiens, HCT-116, 144 h, 6 days
[16] = concentration range 2–20 μM, MTT, 6 days

C[C@H](CCC(=O)NO)[C@H]1CC[C@H]2[C@@H]3CC[C@@H]4C[C@H](O)CC[C@]4(C)[C@H]3CC[C@]12C [LCAHA, N-(hydroxy)-3-hydroxylithocholanamide]
level of CCND1 mRNA [1]: did not change | G0/G1 arrest (HCT116 p53^−/− cells [2]): mild, but significant G0/G1 arrest | caspase 3 and 7 activity (HCT116 p53^wt cells [3]; 10 μM): increase of caspase activity significant | caspase 3 and 7 activity (HCT116 p53^wt cells [3]; 1 or 5 μM, 48 or 72 hr): weak and non-significant increase | phosphorylation of Akt (S473) (HCT116 p53^wt cells [4]; 5 μM, 24–32 hr): increase of the phosphorylation | phosphorylation of GSK-3β (S9) (HCT116 p53^wt cells [4]; 5 μM, 24–32 hr): increase of the phosphorylation | expression of p27 (HCT116 p53^wt cells [4]; 5 or 20 μM, 48 hr, HCT116 cells (Figures 2A and S3A)): not altered | expression of proteins encoded by p53-target genes (MDM2 and p21) and of p53 (HCT116 p53^wt cells [4]; 24 or 48 hr): did not induce | expression level of Aurora A (HCT116 cells): significant decrease | expression level of cyclin A1 (HCT116 cells): significant decrease | GI50 (HCT116 p53^−/− cells [5]; 6 days): 960 ± 290 nM | GI50 (HCT116 p53^−/− cells [5]; [15]): < 1000 nM | LD50 (HCT116 p53^−/− cells [5]; Homo sapiens, HCT-116, 144 h, read-out: LD50, HCT116 p53^−/−, MTT assay, 6 days): > 25 µM | growth of cells inhibited (HCT116 p53^−/− cells [5]; [16]): about 60% | GI50 (HCT116 p53^wt cells [6]; 6 days): 870 ± 90 nM | GI50 (HCT116 p53^wt cells [6]; [15]): < 1000 nM | LD50 (concentration killing 50% of cells) (HCT116 p53^wt cells [6]; Homo sapiens, HCT-116, 144 h, read-out: LD50, HCT116^wt, MTT assay, 6 days): > 25 µM | growth of cells inhibited (HCT116 p53^wt cells [6]; [16]): about 60% | mean nuclei number per picture (HCT116 p53^wt cells [7]; first (lowest) of increasing concentrations): 3957 | mean nuclei number per picture (HCT116 p53^wt cells [7]; second of increasing concentrations): 4229 | mean nuclei number per picture (HCT116 p53^wt cells [7]; third (highest) of increasing concentrations): 2783 | clonogenic potential (SAOS-2 cells [8]): did not affect the clonogenic potential | clonogenic potential (surviving fraction and mean colony size) (MCF-7 cells [9]): significant decrease of the clonogenic potential | cyclin D1 expression (U-2 OS cells [10]): significant decrease of cyclin D1 expression | viability (MTT) (U-2 OS cells [11]): biphasic, dose-dependent decrease of viability | viability (MTT) (SAOS-2 cells [12]): viability decrease was observed only at high concentrations | viability (MTT) (MCF-7 cells [13]): biphasic, dose-dependent decrease of viability | cyclin D1 expression (MCF-7 cells [14]): significant decrease of cyclin D1 expression
